Reference: patent US8686184B2, “Neprilysin inhibitors” (Theravance, Inc., priority 2011, dated 2014)

These compounds were tested against T1, human neprilysin (EC 3.4.24.11; NEP) (Homo sapiens, UniProt P08473) (assay: In vitro enzyme inhibition assay at human NEP (fluorogenic peptide substrate)). Conditions: recombinant human NEP; 37° C.; substrate Mca-D-Arg-Arg-Leu-Dap-(Dnp)-OH 10 μM; values given as ranges; read-out: pKi values at human NEP (converted).
T1 construct: purchased R&D Systems, Minneapolis, Minn; 1182-ZN
T1 sequence (P08473 52-750 limits assumed): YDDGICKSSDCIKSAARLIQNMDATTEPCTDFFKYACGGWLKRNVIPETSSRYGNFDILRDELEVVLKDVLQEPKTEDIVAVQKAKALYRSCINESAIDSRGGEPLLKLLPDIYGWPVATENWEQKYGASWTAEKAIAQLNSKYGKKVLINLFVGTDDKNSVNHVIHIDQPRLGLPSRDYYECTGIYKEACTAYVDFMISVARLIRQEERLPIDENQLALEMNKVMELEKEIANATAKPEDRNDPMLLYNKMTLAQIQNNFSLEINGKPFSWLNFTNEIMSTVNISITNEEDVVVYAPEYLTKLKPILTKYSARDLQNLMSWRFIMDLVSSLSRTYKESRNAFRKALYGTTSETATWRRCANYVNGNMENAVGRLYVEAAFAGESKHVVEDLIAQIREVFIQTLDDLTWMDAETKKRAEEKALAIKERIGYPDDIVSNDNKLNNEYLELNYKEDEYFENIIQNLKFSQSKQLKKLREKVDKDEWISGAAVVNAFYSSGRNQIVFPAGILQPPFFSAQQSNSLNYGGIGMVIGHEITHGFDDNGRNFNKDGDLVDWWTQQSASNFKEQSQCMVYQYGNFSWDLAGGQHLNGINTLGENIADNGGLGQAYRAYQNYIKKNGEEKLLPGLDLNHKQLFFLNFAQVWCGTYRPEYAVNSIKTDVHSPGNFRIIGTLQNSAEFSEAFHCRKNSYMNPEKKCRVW
Assay type: biochemical
Method: In vitro Assays for the Quantitation of Inhibitor Potencies at Human and Rat NEP, and Human ACE
The inhibitory activities of compounds at human and rat neprilysin (EC 3.4.24.11; NEP) and human angiotensin converting enzyme (ACE) were determined using in vitro assays as described below.
Recombinant human NEP and recombinant human ACE were obtained commercially (R&D Systems, Minneapolis, Minn., catalog numbers 1182-ZN and 929-ZN, respectively). The fluorogenic peptide substrate Mca-D-Arg-Arg-Leu-Dap-(Dnp)-OH (Medeiros et al. (1997) Braz. J. Med. Biol. Res. 30:1157-62; Anaspec, San Jose, Calif.) and Abz-Phe-Arg-Lys(Dnp)-Pro-OH (Araujo et al. (2000) Biochemistry 39:8519-8525; Bachem, Torrance, Calif.) were used in the NEP and ACE assays respectively.
The assays were performed in 384-well white opaque plates at 37° C. using the fluorogenic peptide substrates at a concentration of 10 μM in Assay Buffer (NEP: 50 mM HEPES, pH 7.5, 100 mM NaCl, 0.01% polyethylene glycol sorbitan monolaurate (Tween-20), 10 μM ZnSO4; ACE: 50 mM HEPES, pH 7.5, 100 mM NaCl, 0.01% Tween-20, 1 μM ZnSO4).
Test compounds were assayed over the range of concentrations from 10 μM to 20 pM. Test compounds were added to the enzymes and incubated for 30 minute at 37° C. prior to initiating the reaction by the addition of substrate. Reactions were terminated after 20 minutes of incubation at 37° C. by the addition of glacial acetic acid to a final concentration of 3.6% (v/v).
Plates were read on a fluorometer with excitation and emission wavelengths set to 320 nm and 405 nm, respectively Inhibition constants were obtained by nonlinear regression of the data using the equation (GraphPad Software, Inc., San Diego, Calif.): v=v0/[1+(I/K′)] where v is the reaction rate, v0 is the uninhibited reaction rate, I is the inhibitor concentration and K′ is the apparent inhibition constant.
Compounds of the invention were tested in this assay and found to have pKi values at human NEP as follows.

`O=C(N[C@H](Cc1ccccc1)[C@@H](O)C(=O)O)c1cccc(-c2ccccc2C(=O)O)c1` [Example 10-9, 3′-((1R,2R)-1-Benzyl-2-carboxy-2-hydroxy-ethylcarbamoyl)-biphenyl-2-carboxylic acid] and `O=C(N[C@H](Cc1ccccc1)[C@@H](O)C(=O)O)c1cccc(-c2ccc(F)cc2C(=O)O)c1` [Example 10-10, 3′-((1R,2R)-1-Benzyl-2-carboxy-2-hydroxy-ethylcarbamoyl)-4-fluoro-biphenyl-2-carboxylic acid] fall in the same range of Ki: 0.0126 to 0.1 µM for the first, 0.0126 to 0.1 µM for the second.

`O=C(N[C@H](Cc1ccccc1)[C@@H](O)C(=O)O)c1cccc(-c2ccc(Cl)cc2C(=O)O)c1` [Example 10-11, 3′-((1R,2R)-1-Benzyl-2-carboxy-2-hydroxy-ethylcarbamoyl)-4-chloro-biphenyl-2-carboxylic acid] and `O=C(N[C@H](Cc1ccccc1)[C@@H](O)C(=O)O)c1cccc(-c2cc(Cl)ccc2C(=O)O)c1` [Example 10-12, 3′-((1R,2R)-1-Benzyl-2-carboxy-2-hydroxy-ethylcarbamoyl)-5-chloro-biphenyl-2-carboxylic acid] fall in the same range of Ki: 0.0126 to 0.1 µM for the first, 0.0126 to 0.1 µM for the second.

`COc1ccc(C(=O)O)c(-c2cccc(C(=O)N[C@H](Cc3ccccc3)[C@@H](O)C(=O)O)c2)c1` [Example 10-13, 3′-((1R,2R)-1-Benzyl-2-carboxy-2-hydroxy-ethylcarbamoyl)-5-methoxy-biphenyl-2-carboxylic acid] and `O=C(N[C@H](Cc1ccccc1)[C@@H](O)C(=O)O)c1cccc(-c2cc(F)ccc2C(=O)O)c1` [Example 10-14, 3′-((1R,2R)-1-Benzyl-2-carboxy-2-hydroxy-ethylcarbamoyl)-5-fluoro-biphenyl-2-carboxylic acid] fall in the same range of Ki: 0.0126 to 0.1 µM for the first, 0.0126 to 0.1 µM for the second.

`Cc1ccc(C(=O)N[C@H](Cc2ccccc2)[C@@H](O)C(=O)O)cc1-c1ccccc1C(=O)O` [Example 10-15, 5′-((1R,2R)-1-Benzyl-2-carboxy-2-hydroxy-ethylcarbamoyl)-2′-methyl-biphenyl-2-carboxylic acid] and `O=C(N[C@H](Cc1ccccc1)[C@@H](O)C(=O)O)c1ccc(Cl)c(-c2ccccc2C(=O)O)c1` [Example 10-22, 5′-((1R,2R)-1-Benzyl-2-carboxy-2-hydroxy-ethylcarbamoyl)-2′-chloro-biphenyl-2-carboxylic acid] fall in the same range of Ki: 0.00126 to 0.01 µM for the first, 0.00126 to 0.01 µM for the second.

`CC(C)c1ccc(C(=O)N[C@H](Cc2ccccc2)[C@@H](O)C(=O)O)cc1-c1ccccc1C(=O)O` [Example 10-17, 5′-((1R,2R)-1-Benzyl-2-carboxy-2-hydroxy-ethylcarbamoyl)-2′-isopropyl-biphenyl-2-carboxylic acid] and `CCc1ccc(C(=O)N[C@H](Cc2ccccc2)[C@@H](O)C(=O)O)cc1-c1ccccc1C(=O)O` [Example 10-19, 5′-((1R,2R)-1-Benzyl-2-carboxy-2-hydroxy-ethylcarbamoyl)-2′-ethyl-biphenyl-2-carboxylic acid] fall in the same range of Ki: 0.00126 to 0.01 µM for the first, 0.00126 to 0.01 µM for the second.

`Cc1ccc(C(=O)N[C@H](Cc2ccccc2)[C@@H](O)C(=O)O)cc1-c1ccccc1CC(=O)O` [Example 10-20, (2R,3R)-3-[(2′-Carboxymethyl-6-methyl-biphenyl-3-carbonyl)-amino]-2-hydroxy-4-phenyl-butyric acid] and `O=C(N[C@H](Cc1ccccc1)[C@@H](O)C(=O)O)c1ccc(N2CCOCC2)c(-c2ccccc2C(=O)O)c1` [Example 10-21, 5′-((1R,2R)-1-Benzyl-2-carboxy-2-hydroxy-ethylcarbamoyl)-2′-morpholin-4-yl-biphenyl-2-carboxylic acid] fall in the same range of Ki: 0.0126 to 0.1 µM for the first, 0.0126 to 0.1 µM for the second.

Compared with `O=C(N[C@H](Cc1ccccc1)[C@@H](O)C(=O)O)c1cc(O)cc(-c2ccccc2C(=O)O)c1` [Example 10-24, 3′-((1R,2R)-1-Benzyl-2-carboxy-2-hydroxy-ethylcarbamoyl)-5′-hydroxy-biphenyl-2-carboxylic acid], `O=C(N[C@H](Cc1ccccc1)[C@@H](O)C(=O)O)c1cc(F)cc(-c2ccccc2C(=O)O)c1` [Example 10-25, 3′-((1R,2R)-1-Benzyl-2-carboxy-2-hydroxy-ethylcarbamoyl)-5′-fluoro-biphenyl-2-carboxylic acid] is lower in Ki: 0.0126 to 0.1 µM for the first, 0.00126 to 0.01 µM for the second.
